Literature values as cited in patent EP1239029B1, “Cleaning compositions” (UNILEVER PLC, priority 2001, dated 2002).
Where two headings read alike, the source gives them in different places.

[1] = other common materials, by contrast, at 20°C

Water Solubility (g/100g) (highly water-soluble materials, grams of solid to form a saturated solution in 100 grams of water at 20°C) | Structure (SMILES) | Water Solubility (g/100g) [1] [g/100g]
 | O=BO[O-].[Na+] [Sodium perborate anhydrous] | 3.7
 | O=P(O)(O)OP(=O)(O)OP(=O)(O)O [Sodium tripolyphosphate anhydrous] | 15
>100 | NC(N)=O [Urea] | 
